The test system of series [1] is TK6 cells. The experiment in a line: Tubulin visualization. To be noted: 6 h; CBG 30 µM, CBD 15 µM, CBC 15 µM, CBN 15 µM; visually compared to control, not quantified. It counts as cell-based, human. As to the method:
For tubulin visualization, cells were treated with CBG 30 µM, CBD 15 µM, CBC 15 µM, CBDV 40 µM, and CBN 15 µM. The positive control was vincristine sulphate 0.0121 µM, and the solvent control was DMSO. Cells were treated for 6 h and then harvested. Slides were prepared with cytospin centrifugation. The cells were fixed in ice-cold methanol for 2 h. Following fixation, cells were permeabilized with 0.1% Tween20 in 1 × phosphate-buffered saline (PBS) for 5 min. Next, the anti-α-tubulin antibody was applied in 1:50 dilution. Antibody was diluted with 5% FCS in 1 × PBS. The antibody was incubated in a humid chamber at 4 °C for 24 h. Afterwards, the antibody was removed by washing slides twice with 0.5% Tween20 in 1 × PBS for 5 min. Nuclei were counterstained with Hoechst 33,258 (5 µg/mL, 3 min). The visualization was performed with a Keyence BZ-X800 microscope.

The subject of series [2] is TK6 cells. Put plainly: Cell cycle analysis (flow cytometry, DAPI). The series is classed as cell-based, human. Here is the method: The cells were treated with CBG 30 µM, CBD 15 µM, CBC 15 µM, CBDV 40 µM, and CBN 15 µM for 6 or 24 h. The positive control was vincristine sulphate in a concentration of 0.0121 µM for 6 h of exposure and 0.0061 µM for 24 h. The solvent control was DMSO. Furthermore, experiments with the addition of S9 mix were performed with CBDV. In these experiments, cells were treated with CBDV (40 µM) with or without 0.25% S9 mix for 6 h. DMSO with or without the S9 mix was used as control, and the positive control was the same as mentioned above. After the treatment, cells were collected, washed twice with phosphate buffered saline (PBS) and fixed with 70% ethanol for 30 min on ice. Following each described step above, cells were centrifuged at 1000 rpm, 5 min, and 4 °C. Lastly, cells were resuspended in 1% bovine serum albumin (BSA) in PBS solution and stained with DAPI in a final concentration of 1 µg/mL for 30 min on ice. The cell distribution in different cell cycle phases was analyzed with MACSQuant® Analyzer 16 Flow Cytometer using a 450/50 nm filter and MACSQuantify™ Software 2.13 (Miltenyi Biotec, Bergisch Gladbach, Germany). For each sample, 20 000 events were analyzed. Four independent experiments were performed for 6 h of treatment without metabolic activation. Three independent experiments were done for 24 h of treatment without metabolic activation and 6 h of treatment with metabolic activation.
For orientation: A flow cytometer gives signals particle by particle.

The test system of series [3] is human lymphoblastoid TK6 cells. The experiment in a line: Cytokinesis-block micronucleus (CBMN) assay. To be noted: for BMDL (10th percentile): 10th percentile of BMD50 estimation; for BMDL (10th percentile) / BMDU (90th percentile) / Number of micronuclei with S9 mix vs without: 4 h; for BMDL (10th percentile) / BMDU (90th percentile): micronucleus data; for 4 h BMD50: 50% increased relative genotoxicity vs controls, from micronucleus data, without S9, Bayesian BMD analysis; for 4 h BMD50 / Micronucleus induction: 4 h treatment; for BMDU (90th percentile): 90th percentile of BMD50 estimation; for Number of micronuclei with S9 mix vs without: CBG 30 µM, CBD 15 µM, CBC 15 µM, CBDV 40 µM, CBN 15 µM, 0.25% S9 mix; for Micronucleus induction: without metabolic activation, at least one concentration, vs solvent control.

Details of series [4]: method as in Zhong et al. [2023]. The settings on record: depending on the cell line; downregulating CDK1, CDK2 and cyclin E; ref Zhong et al. [2023]; cited from earlier work.
The conditions of series [5]: frequent Cannabis smokers, inhalation, ref Newmeyer et al. [2016], cited from earlier work; for Cmax: read-out: Mean maximum concentration (Cmax) in blood.
Series [6] concerns human lymphoblastoid TK6 cells. The experiment in a line: Kinetochore analysis of micronuclei. The settings on record: 4 h; for Kinetochore (+) MNi, %: of 200 micronuclei, CBG 30 µM, CBD 15 µM, CBC 15 µM, CBDV 40 µM, CBN 15 µM, MMS 40 µM, vincristine 0.0121 µM, one experiment. The series is classed as cell-based. As to the method: For kinetochore analysis, cells were treated for 4 h with CBG 30 µM, CBD 15 µM, CBC 15 µM, CBDV 40 µM, and CBN 15 µM. The positive controls were MMS 40 µM, and vincristine sulphate 0.0121 µM; the solvent control was DMSO. After 4 h of treatment, the culture medium was renewed, and cells were exposed for 24 h to the cytokinesis inhibitor cytochalasin B (3 μg/mL). Then, cells were harvested, and slides were prepared with cytospin centrifugation. The cells were fixed in ice-cold methanol for 2 h. Kinetochores were stained overnight with undiluted primary anti-centromere antibody at 37 °C followed by 1:20 diluted FITC-conjugated secondary antibody at 37 °C for 2 h. Nuclei were counterstained with Hoechst 33,258 (5 µg/mL, 3 min). The experiment was performed one time. Per compound, 200 micronuclei were evaluated for kinetochore signal presence (Fig. 3). The evaluation was performed with a Keyence BZ-X800 microscope. The slides used in kinetochore evaluation were also evaluated for the number of induced micronuclei as described in the above paragraph cytokinesis‑block micronucleus assay.

Series [7] relates to TK6 cells. Put plainly: Mitotic disturbance assay. It counts as cell-based, human. The settings on record: 6 h, without S9; CBG 30 µM, CBD 15 µM, CBC 15 µM, CBDV 40 µM, CBN 15 µM; vs solvent control. Here is the method:
The cells were treated for 6 h with CBG 30 µM, CBD 15 µM, CBC 15 µM, CBDV 40 µM, and CBN 15 µM. The positive control was vincristine sulphate 0.0121 µM, and the solvent control was DMSO. For the experiments with or without the S9 mix (final concentration 0.25%), TK6 cells were treated with either CBDV 40 µM or vincristine sulphate 10 ng/mL for 6 h. DMSO with or without S9 mix was used as control. Further procedure was as described for micronucleus experiments, except with direct harvest after cannabinoid treatment without the incubation period with cytochalasin B. Two slides were evaluated with a Nikon Eclipse 55i fluorescent microscope for each experimental condition. The independent experiments were conducted three times.
The cells were counted in categories apoptosis, interphase, prophase, metaphase, anaphase-telophase, disturbed metaphase, and disturbed anaphase-telophase in 1000 cells. The mitotic index was calculated as a sum of the number of cells in prophase, metaphase, anaphase-telophase, disturbed metaphase, and disturbed anaphase-telophase in 1000 cells. Disturbed metaphase and disturbed anaphase-telophase were defined as deviating from the usual appearance of mitoses. Disturbed mitoses were assessed in 100 mitotic cells per slide.

On the set-up of series [8]: method as in Peters et al. [2022]. The settings on record: after consuming medical cannabis oil, ref Peters et al. [2022], cited from earlier work.
Series [9] has as its system human lymphoblastoid TK6 cells. The settings on record: for 4 h BMD50 / BMDL (10th percentile) / BMDU (90th percentile): human, 4 h.
In series [10] the test system is human mesothelioma, cholangiocellular carcinoma and ovarian carcinoma cell lines. Set-up: method as in earlier work. To be noted: 24 h of treatment; correlates with decrease of cell percentage in S phase; ref Viereckl et al. [2022]; Colvin et al. [2022]; Sooda et al. [2023]; cited from earlier work.
The test system of series [11] is adult neural stem/progenitor cells. More on the design: method as in Lourenço et al. ([2023]). To be noted: 7 days of exposure; phase not indicated; ref Lourenço et al. ([2023]); cited from earlier work.
Series [12] relates to human buccal cell line TR146. More on the design: method as in Russo et al. ([2019]). The settings on record: TR146, after 3 and 24 h; ref Russo et al. ([2019]); cited from earlier work.
Details of series [13]: method as in Hurley et al. ([2022]). The settings on record: epilepsy treatment in children, ref Hurley et al. ([2022]), cited from earlier work.
Where [14] appears, read: 6 h, without S9, CBG 30 µM, CBD 15 µM, CBC 15 µM, CBDV 40 µM, CBN 15 µM.
[15] abbreviates: treatment – control (basal level of micronuclei subtracted), same concentrations.

Like-named read-outs stand apart in the source and are kept apart here.

For the compound `CCCCCc1cc(O)c2c(c1)OC(C)(C)c1ccc(C)cc1-2` [CBN, cannabinol], the “Multipolar and monopolar tubulin aggregation” value with TK6 cells [1] is listed as “observed more frequently”. Besides, in the series with TK6 cells [2] (setting [14]), the “Cell cycle distribution, 6 h” value is given as “no significant changes in the normal cell cycle distribution”. In addition, in series [3], the “BMDL (10th percentile)” value was 2.7 µM, the “4 h BMD50” value is recorded as 8.4 µM, the “BMDU (90th percentile)” value was 16.9 µM and the “Number of micronuclei with S9 mix vs without” value (“Number … vs without” for short) was “significant reduction in the number of micronuclei”. Further, the Micronucleus induction result in series [3] is on record as “significant induction of micronuclei”. Besides, the Cell cycle effect result in series [4] was “cell cycle arrest in either the G0/G1 phase or S phase”. In addition, in series [5], the Cmax is 37.4 nM. In addition, in series [6], the “Kinetochore (+) MNi, %” value is listed as 46%. For the same compound, the “Kinetochore (+) induced MNi” value in [6] (setting [15]) stood at 63.3%. Besides, the Mitotic index result in the series with TK6 cells [7] was “significantly decreased the mitotic index”.
Regarding `COS(C)(=O)=O` [MMS, methyl methane sulfonate, reference compound], in [6], the “Kinetochore (+) MNi, %” value stood at 38%. For the same compound, the “Kinetochore (+) induced MNi” value in series [6] (setting [15]) amounted to 41.9%.
For the compound `CCCCCc1cc(O)c2c(c1)OC(C)(CCC=C(C)C)C=C2` (centres unmarked) [CBC, cannabichromene], the “Multipolar and monopolar tubulin aggregation” value with TK6 cells [1] is on record as “observed more frequently”. Further, the “Cell cycle distribution, 6 h” value with TK6 cells [2] (setting [14]) is “no significant changes in the normal cell cycle distribution”. For the same compound, the “Cell cycle distribution (time not given)” value in the series with TK6 cells [2] (TK6, CBC 15 µM, CBN 15 µM, 6 or 24 h) is “did not observe a change in cell cycle distribution”. The “Mean Cmax concentration in plasma” value in series [8] is on record as 6.6 µg/L. Besides, the Cmax in [8] (read-out: Mean Cmax concentration in plasma) is 21 nM. In [3], the “BMDL (10th percentile)” value is recorded as 2.5 µM; the “4 h BMD50” value came to 9.8 µM; the “BMDU (90th percentile)” value was 34.5 µM; the “Number … vs without” value was “reduced as well, but not significantly”. The Micronucleus induction entry in [3] is given as “significant induction of micronuclei”. Further, in [6], the “Kinetochore (+) MNi, %” value was determined as 48.5%. In series [6] (setting [15]), the “Kinetochore (+) induced MNi” value is listed as 69.7%.
Regarding `CCCCCc1cc(O)c(C/C=C(\C)CCC=C(C)C)c(O)c1` [CBG, cannabigerol], in [9], the Micronucleus induction result is “significant induction of micronuclei”, the “Number … vs without” value is listed as “significant reduction in the number of micronuclei”, the “4 h BMD50” value came out at 20.5 µM and the “BMDL (10th percentile)” value is given as 3.9 µM. In addition, the “BMDU (90th percentile)” value in series [9] was found to be 64.1 µM. Also, the Cell cycle effect entry in [10] is given as “arresting cells in the G0/G1 phase”. For the same compound, in series [5], the “Mean maximum concentration (Cmax) in blood” value was 6.9 µg/L and the Cmax is 21.8 nM. Further, in series [6] (human), the “Kinetochore (+) induced MNi” value is recorded as 61.5%.
For the compound `C=C(C)[C@@H]1CCC(C)=C[C@H]1c1c(O)cc(CCC)cc1O` [CBDV, cannabidivarin], in series [9], the Micronucleus induction result is recorded as “induced micronuclei only after metabolic activation”, the “Number … vs without” value was “significant rise in micronuclei frequency”, the “4 h BMD50” value came to 15.3 µM and the “BMDL (10th percentile)” value is given as 1.4 µM. In series [9], the “BMDU (90th percentile)” value came out at 102.9 µM. Also, in series [11], the Cell cycle effect entry is “induced cell cycle arrest”. Moreover, in the series with TK6 cells [2] (human, 6 h, 40 µM), the “Cell cycle distribution, 6 h” value is recorded as “slight non-significant rise in cell percentage in the G1 phase” and the “Cell cycle distribution, absence or presence of metabolic enzymes” value was “cell accumulation in the G1 phase”. In addition, the “DNA damage (comet assay)” value in series [12] is reported as “had the same effect on the cells as CBD”. Also, the “Kinetochore (+) induced MNi” value in series [6] (human) was 69.8%. Moreover, the “Mean plasma Cmax” value in series [13] is on record as 7.4 µg/L. The Cmax in series [13] (read-out: Mean plasma Cmax) was 25.8 nM.

Values taken from PMC11402852, “Genotoxicity of selected cannabinoids in human lymphoblastoid TK6 cells” (Archives of Toxicology, 2024).
